Entries after “also recorded” stand apart in the source; their conditions may differ. Where two headings read alike, the source gives them in different places.

The subject of data set [1] is AMPA/kainate receptors. The experiment in a line: QNTI (inhibition of quisqualate neurotoxicity) test. The note with it: Inhibition of quisqualate neurotoxicity in primer cortical culture. The data set is classed as cell-based, rat. The procedure: QNTI (inhibition of quisqualate neurotoxicity (test)
The method is based on the phenomenon that the neurotixic effect of quisqualate /i.e. (S)-alpha-amino-3,5-dioxo-1,2,4-oxadiazolidine-2-propanoic acid, an AMPA/kainate agonist/ on the primer telencephalic cell culture of the rat could be inhibited by AMPA/kainate antagonists. The test was performed as described in the literature /Kovács, A. D., Egyed, A.: Protection against non-NMDA receptor-mediated excitotoxicity by GYKI 52466 in mature telencephalic cultures of the rat, Neurobiology, 4, 59-72 (1996)/.

For data set [2], the system named is AMPA/kainate receptors. The experiment in a line: PSI (inhibition of population spike) test in CA1 neurones of hippocampus. The data set is classed as cell-based. Particulars: non-cumulative IC50, rat hippocampus. The procedure: PSI (inhibition of population spike) test
The field potentials (population spike) evoked by electric stimulation of the Shaffer collateral comissural pathway were measured in the CAl neurones of rat hippocampus. The population spike can be inhibited by AMPA/kainate antagonists. The non-cumulative IC50 values are shown in Table I. /Tarnawa, I., Molnár, P., Gaál, L., Andrási, F.: Inhibition of hippocampal field potentials by GYKI 52466 in vitro and in vivo, Acta Physiol. Hung., 79(2), 163-9 (1992)/.

Data set [3] can be described thus: Acute toxicity. Particulars: both sexes, mouse, in vivo. The procedure: The study was done in NMRI mice of both sexes, weighing 20 to 25 g, with 6 animals in each dose-group. The test compounds were applied at […], and the maximal per os and ip. doses were 500 mg/kg and 300 mg/kg, respectively. The cumulative lethality was recorded on day 7. The animals were kept under standard laboratory conditions.

In data set [4] the test system is male NMRI mice. The experiment in a line: Muscle relaxant effect (inclined screen according to Hoppe). It is filed as in vivo. The note with it: ip.; for ED50: Mus musculus, determined at the time of maximal effect; for Muscle relaxant effect duration: time of last reading when the effect was at least 30%. The procedure: The assay was done according to Hoppe in male NMRI mice weighing 20 to 25 g, with 10 animals in each group /Hoppe, J. O., J. Pharmacol. Exp. Ther., 100, 333 (1950)/. Following the ip. treatment of animals, the number of mice showing muscle weakness were recorded at every 10 minutes in the first hour and at half hour intervals afterwards. The animals falling off the 60° inclined screen within 30 seconds were considered positive. ED50 values of the given compounds were determined at each time. The duration of effect was defined as the time of last reading when the effect was at least 30%.

The test system of data set [5] is male NMRI mice. The experiment in a line: Maximal electroshock test (MES). It is filed as in vivo. Particulars: Inhibition of maximal electroshock, ip., 30 minutes before shock; for ED50: Mus musculus. The procedure: Maximal electroshock test (MES)
Male NMRI mice weighing 20 to 30 g were used for the method of Swinyard et al. /Swinyard, E. A., Brown, W. C. and Goodman, L.S.: Comparative assays of antiepileptic drugs in mice and rats, J. Pharmacol., 106, 319 (1952)//. The animals—10 in each group—were treated ip. either with various doses of the test substance or with vehicle. After 30 minutes, a 50 Hz, 40 mA electroshock was applied for 0.4 s through corneal electrodes. The number of animals that developed tonic extensor convulsion of the hind-limbs was registered, percent inhibition was calculated, and ED50 values were determined by the method of Litchfield and Wilcoxon /Litchfield, J. T., Wilcoxon, F. A.: A simplified method of evaluating dose-effect experiments, J. Pharmacol. Exp. Ther., 96, 99 (1949)/ and summarized in Table IV.
In general terms: The maximal electroshock test induces tonic seizures with an electrical stimulus.

Data set [6] relates to male DBA/2j strain mice. Description: Audiogenic seizure (AS) test. It is filed as in vivo. The note with it: for ED50: Mus musculus, 0.25 h. The procedure: Audiogenic seizure (AS) test
The experiments were carried out by the slightly modified method of De Sarro et al. /De Sarro, G. B., Croucher, M. J. and Meldrum, B. S.: Anticonvulsant action of DS 103-282, Neuropharm., 23, 525 (1984)/. Groups of 8 male DBA/2j strain mice weighing 7 to 14 g were treated ip. with the test substance in 10 ml/kg volume. 15 minutes later, the animals were placed into a covered glass container (30 cm in diameter) and exposed to a 14 kHz 120 dB tone for 60 s at the most. Seizure response was assessed using the following scale: 0=normal behaviour, 1=wild running, 2=clonus, 3=tonic flexor seizure, 4=tonic extensor seizure. The maximum response during the 60 s exposure was recorded for each animal. Lethality was also noted. The ED50 values were determined by the method of Litchfield and Wilcoxon concerning the inhibition of clonic seizures and tonic extensor convulsions.

For data set [7], the system named is male NMRI mice. Description: Global ischemia induced by magnesium chloride (gasping time). It is filed as in vivo. Particulars: for Effect in % (increase in gasping time): dose 30 mg/kg ip., 30 minutes before magnesium chloride iv.; for ID50 ip.: gasping time, calculated by linear regression. The procedure:
Global Ischemia Induced by Magnesium Chloride
The experiments were carried out as described by Berga et al. /Berga, P., Beckett, P. R., Roberts, D. J., Llenas, J., Massingham, R.: Synergistic interactions between piracetam and dihydroergocristine in some animal models of cerebral hypoxia and ischemia, Arzneim.-Forsch., 36, 1314-1320 (1986)/. Groups of 10 male NMRI mice weighing 20 to 25 g were treated ip. with the test substance in […]. After 30 minutes, saturated aqueous magnesium chloride solution was applied iv. (5 ml/kg) resulting in an immediate cardiac arrest. The elapsed time between the iv. injection and the last gasping was measured (gasping time). The means of the treated groups were expressed as percent of control. Statistical analysis was done by ANOVA followed by DUNCAN test. The dose resulting in 50% descrease in gasping time (ID50) was calculated by linear regression.

As a reminder, the melting point is the temperature, or range, at which the solid turns liquid. `CC1(C#N)Cc2cc3c(cc2C(c2ccc([N+](=O)[O-])cc2)=NN1)OCO3` (racemic) [Example 58, (±)-8-Cyano-7,8-dihydro-8-methyl-5-(4-nitrophenyl)-9H-1,3-dioxolo/4,5-h//2,3/benzodiazepine] displayed a melting point of 162 to 164 °C.
`Nc1ccc(C2=NN=C(c3nnn[nH]3)Cc3cc4c(cc32)OCO4)cc1` [Example 48, 5-(4-Aminophenyl)-8-(5-tetrazolyl)-9H-1,3-dioxolo/4,5-h//2,3/benzodiazepine] had a melting point of 244 to 246 °C.
One may read the IC50 as the concentration that inhibits the measured activity by half. A low value points to greater potency in that assay. A word on the LD50: it is the dose expected to kill half of the subjects tested. Broadly, the ED50 is the midpoint of the dose-response relation. As for `CC1=NN=C(c2ccc(N)cc2)c2cc3c(cc2C1)OCO3` [“A”, 8-Methyl-5-(4-aminophenyl)-9H-1,3-dioxolo/4,5-h/-/2,3/benzodiazepine, reference compound], the IC50 in data set [1] was found to be 12 µM; in data set [2], 9.1 µM. In addition, the 50% lethal dose (LD50) at 7 day in data set [3] (po, NMRI mice, p.o., cumulative lethality on day 7, maximal dose 500 mg/kg, read-out: Appr. LD50 p.o.) came to 500 mg/kg; in data set [3] (NMRI mice, ip., cumulative lethality on day 7, maximal dose 300 mg/kg, read-out: Appr- LD50 ip.), 392 mg/kg. In addition, the ED50 was 24.5 mg/kg in data set [4]; 6.9 mg/kg in data set [5]; 4.3 mg/kg in data set [6] (ip, read-out: AS convulsion clonic ED50); 3.6 mg/kg in data set [6] (ip, read-out: AS convulsion tonic ED50). For the same compound, in data set [4], the “Muscle relaxant effect duration” value was 1 h. In data set [7], the “Effect in % (increase in gasping time)” value stood at 55%. Further, in data set [7], the ID50 ip. was 30 mg/kg.
With `CC1(C#N)Cc2cc3c(cc2C(c2ccc([N+](=O)[O-])cc2)=NN1C(=O)CCl)OCO3` (racemic) [Example 73, (±)-8-Cyano-7,8-dihydro-7-chloroacetyl-8-methyl-5-(4-nitrophenyl)-9H-1,3-dioxolo/4,5-h//2,3/benzodiazepine], the 50% inhibitory concentration (IC50) in data set [1] was determined as 7.4 µM; in data set [2] it was 6.3 µM. Besides, the LD50 at 7 day in data set [3] (NMRI, ip, 300 mg/kg) is about 300 mg/kg; in data set [3] (NMRI, po, 500 mg/kg), over 500 mg/kg. For the same compound, the 50% effect level in data set [4] (ED50) was put at a dose of 22.6 mg/kg. In addition, the “Muscle relaxant effect duration” value in data set [4] is “substantially longer; also recorded: higher than 4 hr”.
For the compound `N#CC1=NN=C(c2ccc(N)cc2)c2cc3c(cc2C1)OCO3` [Example 47, 5-(4-Aminophenyl)-8-cyano-9H-1,3-dioxolo/4,5-h//2,3/benzodiazepine], in data set [7], the “Effect in % (increase in gasping time)” value is recorded as 89% and the ID50 ip. is 15 mg/kg.
In the case of `NC(=O)C1=NN=C(c2ccc(N)cc2)c2cc3c(cc2C1)OCO3` [Example 32, 5-(4-Aminophenyl)-9H-1,3-dioxolo/4,5-h//2,3/benzodiazepine-8-carboxylic amide], in data set [5], the “MES ED50” value stood at 2.5 mg/kg.
For `CC1(C#N)Cc2cc3c(cc2C(c2ccc(N)cc2)=NN1C(=O)CCNCCN1CCOCC1)OCO3` (racemic) [Example 89, (±)-5-(4-Aminophenyl)-8-cyano-7,8-dihydro-8-methyl-7-/3-(2-morpholinoethylamino)-propionyl/-9H-1,3-dioxolo/4,5-h//2,3/-benzodiazepine], the figures for the IC50 in data set [1] and in data set [2] were 5.4 µM and 3 µM, respectively. Further, the LD50 at 7 day in data set [3] (NMRI, ip, 300 mg/kg) is about 300 mg/kg; in data set [3] (NMRI, po, 500 mg/kg) it was over 500 mg/kg. Further, the ED50 worked out at 31.3 mg/kg in data set [4]; 2.3 mg/kg in data set [5]; 5.4 mg/kg in data set [6] (Inhibition of sound induced seizure, clonic seizures, DBA/2j mice, ip., 15 minutes, read-out: AS convulsion clonic ED50); 1.2 mg/kg in data set [6] (Inhibition of sound induced seizure, tonic extensor convulsions, DBA/2j mice, ip., 15 minutes, read-out: AS convulsion tonic ED50). Moreover, in data set [4], the “Muscle relaxant effect duration” value worked out at 1 h. The “MES ED50” value in data set [5] was “The compound according to Example 89 was significantly more effective at the inhibition of maximal electroshock and sound induced tonic convulsions than the reference compound “A” as shown in Table TV”. Further, the “AS convulsion tonic ED50” value in data set [6] (Inhibition of sound induced seizure, tonic extensor convulsions, DBA/2j mice, ip., 15 minutes) is “The compound according to Example 89 was significantly more effective at the inhibition of maximal electroshock and sound induced tonic convulsions than the reference compound “A” as shown in Table TV”. Also, in data set [7], the “Effect in % (increase in gasping time)” value is 117%. In addition, the ID50 ip. in data set [7] was 7 mg/kg.
